From patent US20060171988A1, “Method of treatment using foams as artificial lymph nodes” (priority 2005, published 2006)
Entries after “also recorded” stand apart in the source; their conditions may differ.

How the values were obtained:
[1] = system: EL-4 cells; assay: 51Cr release assay (CTL activity) with T cells from immunized mice, EL-4 targets; format: in vivo, mouse
Procedure: Immunization: On day 9 after surgery, wounds had generally healed and healthy mice were used for immunization with 30 μg peptide per mouse. Depending on the experiment, CpG deoxyoligonucleotide 1668 (5 -100 pmole/mouse), mouse GM-CSF (10^3 units/mouse) and Titermax classic were used as adjuvants. Generally, injection volume was adjusted to 200 μl per mouse with sterile PBS. When applying Titermax classic, all other injection components were mixed and then added in small portions to an equal volume of Titermax classic. After each addition, the vial was rigorously mixed to obtain a white, semi-fluid water-in-oil suspension. […]
T-cell culture and ^51Cr release assay: On day 9 after immunization, mice were sacrificed and 2*10^7 splenocytes were stimulated in vitro for 5 days using 10^7 irradiated (30 Gy) splenocytes from untreated C57BL/6 mice as feeder cells and 5 ng/ml peptide. Cytotoxic T lymphocyte (CTL) activity was measured in a standard ^51Cr release assay (Brunner et al., 1968). Briefly, stimulated cells were harvested, counted and plated out in a series of […] in a round-bottom 96-well plate. […] After intense washing with cell culture medium, 10^4 of these cells were added to each well of the 96-well plate as targets. ^51Cr release was measured after 4 h incubation at 37° C./5% (v/v) CO2.

[2] = system: ovalbumin-transfected E.G7 mouse tumor cells; assay: 51Cr release assay (CTL activity) with T cells from immunized mice, E.G7 targets; format: in vivo
Procedure: Immunization: On day 9 after surgery, wounds had generally healed and healthy mice were used for immunization with 30 μg peptide per mouse. Depending on the experiment, CpG deoxyoligonucleotide 1668 (5 -100 pmole/mouse), mouse GM-CSF (10^3 units/mouse) and Titermax classic were used as adjuvants. Generally, injection volume was adjusted to 200 μl per mouse with sterile PBS. When applying Titermax classic, all other injection components were mixed and then added in small portions to an equal volume of Titermax classic. After each addition, the vial was rigorously mixed to obtain a white, semi-fluid water-in-oil suspension. Injection was either performed subcutaneously into the nape of the neck, the base of tail and the footpad, using a volume ratio of 3:1:1, respectively, or directly into the centre of the right foam implantate.
T-cell culture and ^51Cr release assay: On day 9 after immunization, mice were sacrificed and 2*10^7 splenocytes were stimulated in vitro for 5 days using 10^7 irradiated (30 Gy) splenocytes from untreated C57BL/6 mice as feeder cells and 5 ng/ml peptide. Cytotoxic T lymphocyte (CTL) activity was measured in a standard ^51Cr release assay (Brunner et al., 1968). Briefly, stimulated cells were harvested, counted and plated out in a series of […] in a round-bottom 96-well plate. 10^6 EL-4 cells (C57BL/6-derived T cell lymphoma; ATCC no. TIB-39) were loaded with 50 pmole peptide and [^51Cr] Na2CrO4-labeled at 37° C. for 30 min. After intense washing with cell culture medium, 10^4 of these cells were added to each well of the 96-well plate as targets. ^51Cr release was measured after 4 h incubation at 37° C./5% (v/v) CO2.

[3] = s.c. injection into the nape of the neck, peptide alone, T cells from spleen or lymph nodes of immunized C57BL/6 mice

Sequence: ASNENMETM (peptide ASNENMETM derived from influenza nucleoprotein (amino acid 366-374)) [peptide derived from influenza nucleoprotein (amino acid 366-374)]
- maximum lysis above unspecific background ([1]; peptide injected into s.c. implanted PVA foams, T cells from axillary and cervical lymph nodes, independent second experiment): 37%

Sequence: SIINFEKL (Ovalbumin-derived SIINFEKL peptide (amino acid 257-264)) [peptide derived from chicken ovalbumin (amino acid 257-264), model ligand of mouse MHC class I allele H2-Kb]
- maximum lysis above unspecific background ([2]; peptide injected into s.c. implanted PVA foams, T cells from spleen): approximately 45%
- lysis of ovalbumin-transfected E.G7 cells by T cells ([2]; peptide injected into s.c. implanted PVA foams, T cells from spleen or lymph node): able to lyse
- immune response / recognition of E.G7 target cells by T cells [2, 3]: Neither ovalbumin-transfected E.G7 mouse tumor cells of the H2-b haplotype, nor untransfected H2-b positive EL-4 mouse tumor cells are recognized; also recorded: did not lead to detectable immune responses
- recognition of untransfected EL-4 target cells by T cells [1, 3]: nor untransfected H2-b positive EL-4 mouse tumor cells were recognized
